Results on 2 compounds are retold here after patent publication US20110280827A1, “METHODS AND COMPOSITIONS FOR TREATING HEMATOLOGICAL MALIGNANCIES” (priority 2009, published 2011).

The test system of one data set is AML. The following applies: in combination with chemotherapy, compared to chemotherapy alone; cited from earlier work.
For the next data set, the system named is pre-B-ALL cells. Conditions: in vitro; cited from earlier work.
For data set [1] the following is noted: in vivo; cited from earlier work.
The subject of data set [2] is B104 B-cell lymphoma cells. Kind of data set: Disseminated B104 lymphoma model in SCID mice (survival, Kaplan-Meier). It is filed as in vivo.
Description: Five groups of 4- to 6-week-old SCID mice (8 animals each) were injected intravenously with 1×10^6 B104 B-cell lymphoma cells. […] Starting on day 7 after the injection, one group was administered CAMPATH® (alemtuzumab) weekly at 10 mg/kg; a second group was administered AMD3465 three times a week (Monday, Wednesday, Friday regimen) at 5.0 mg/kg; a third group was administered CAMPATH® (alemtuzumab) weekly at 10 mg/kg and AMD3465 three times a week (Monday, Wednesday, Friday regimen) at 1.0 mg/kg; and a fourth group was administered CAMPATH® (alemtuzumab) weekly at 10 mg/kg and AMD3465 three times a week (Monday, Wednesday, Friday regimen) at 5.0 mg/kg. […] The treatment was terminated on day 42.
Four groups of 4- to 6-week-old SCID mice (8 animals each) were injected intravenously with 1×10^6 B104 B-cell lymphoma cells. Starting on day 10 after the injection, one group was administered CAMPATH® (alemtuzumab) weekly at 10 mg/kg; a second group was administered AMD3465 daily (Monday-Friday regimen) at 5.0 mg/kg; and a third group was administered CAMPATH® (alemtuzumab) weekly at 10 mg/kg and AMD3465 daily (Monday-Friday regimen) at 5.0 mg/kg body weight.
Data set [3] relates to stroma-cocultured Jurkat cells, primary CLL cells, subset of AML cells harboring Flt3 mutation. The following applies: in vitro, stroma coculture; cited from earlier work.
In data set [4] the test system is Raji B-cell lymphoma cells. Kind of data set: Disseminated Raji lymphoma model in SCID mice (survival, Kaplan-Meier). It is filed as in vivo.
Description: Four groups of 4- to 6-week-old SCID mice (8 animals each) were injected intravenously with 2×10^6 Raji B-cell lymphoma cells. The Raji cell line is a well-characterized human B-cell lymphoblastic line (CXCR4^+, CD19^+, CD20^+, CD22^+, CD52^+) derived from a patient with Burkitt's lymphoma (available from the American Tissue and Cell Collection, Manassas, Va.). Starting on day 7 after the injection, three of the four groups were administered subcutaneous AMD3465 daily (Monday-Friday regimen) at 0.1 mg/kg, 0.5 mg/kg or 1.0 mg/kg body weight.

Regarding `c1cc(CN2CCCNCCNCCCNCC2)ccc1CN1CCCNCCNCCCNCC1` [AMD3100], in the data set with AML, the overall survival result is listed as “improved overall survival” and the tumor burden result was “decreased tumor burden”. In the data set with pre-B-ALL cells, the “SDF-1/CXCL12 induced chemotaxis of pre-B-ALL cells into bone marrow stroma layers” value is reported as “blocked”; the “cytotoxic and antiproliferative effects of vincristine and dexamethasone” value is listed as “enhanced”. Moreover, the “white blood cell count” value in data set [1] is on record as “increasing the white blood cell count”.

`c1ccc(CNCc2ccc(CN3CCCNCCNCCCNCC3)cc2)nc1` [AMD3465]: the overall survival entry in the data set with AML is “improved overall survival”. For the same compound, the tumor burden entry with AML is recorded as “decreased tumor burden”. Moreover, the mean survival result in data set [2] (5.0 mg/kg AMD3465 alone daily (M-F) from day 10) is “did not have a significant effect”; in data set [2] (5.0 mg/kg AMD3465 alone three times a week (M, W, F) from day 7), “did not have a significant effect”; in data set [4] (5.0 mg/kg AMD3465 alone daily (M-F) from day 7), “did not have a significant effect”; in data set [4] (AMD3465 alone s.c. daily (M-F) at 0.1, 0.5 or 1.0 mg/kg from day 7, each concentration tested, vs control) it was “significantly increased”. In addition, in data set [3], the chemotherapy-induced apoptosis entry was “significantly enhanced”. In addition, the “dose dependence of the survival effect” value in data set [4] (AMD3465 alone 0.1, 0.5, 1.0 mg/kg, reverse dose-response) was “stronger effect observed at the lower concentrations”.
